Assay: Inhibition of hPIV1 sialidase
Set-up: species or system Human respirovirus 1

| IC50 [µM] | Compound |
| --- | --- |
| 9 | CC(=O)N[C@H]1[C@H]([C@H](O)[C@H](O)CO)OC(C(=O)O)=C[C@@H]1OCC(N)=S |
| 68 | CC(=O)N[C@H]1[C@H]([C@H](O)[C@H](O)CO)OC(C(=O)O)=C[C@@H]1OCCC(N)=S |
| 102 | CC(=O)N[C@H]1[C@H]([C@H](O)[C@H](O)CO)OC(C(=O)O)=C[C@@H]1OCCCC(N)=S |
| 300 | CC(=O)N[C@H]1[C@H]([C@H](O)[C@H](O)CO)OC(C(=O)O)=C[C@@H]1O [NEU5AC2EN] |
